Source: US8614327B2 (Vertex Pharmaceuticals Incorporated, priority 2004, dated 2013)

Target: T1, ΔF508-CFTR (Homo sapiens, UniProt P13569, DEL508-508)
T1 construct: expressed in transfected cells
Experiment: Membrane potential optical (FRET/VIPR) assay, identification of potentiator compounds
Format: cell-based
Settings: Table 3, assay not given; for % Activity: relative efficacy
Method in brief: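 NIH3T3 mouse fibroblasts stably expressing ΔF508-CFTR, temperature-corrected 24 h at 27° C., read on VIPR by FRET between CC2-DMPE and DiSBAC2(3). Potentiators identified in a double-addition format, first adding chloride-free (gluconate) medium with or without compound.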

T1 sequence (P13569 with tags, fused parts or gaps DEL508-508): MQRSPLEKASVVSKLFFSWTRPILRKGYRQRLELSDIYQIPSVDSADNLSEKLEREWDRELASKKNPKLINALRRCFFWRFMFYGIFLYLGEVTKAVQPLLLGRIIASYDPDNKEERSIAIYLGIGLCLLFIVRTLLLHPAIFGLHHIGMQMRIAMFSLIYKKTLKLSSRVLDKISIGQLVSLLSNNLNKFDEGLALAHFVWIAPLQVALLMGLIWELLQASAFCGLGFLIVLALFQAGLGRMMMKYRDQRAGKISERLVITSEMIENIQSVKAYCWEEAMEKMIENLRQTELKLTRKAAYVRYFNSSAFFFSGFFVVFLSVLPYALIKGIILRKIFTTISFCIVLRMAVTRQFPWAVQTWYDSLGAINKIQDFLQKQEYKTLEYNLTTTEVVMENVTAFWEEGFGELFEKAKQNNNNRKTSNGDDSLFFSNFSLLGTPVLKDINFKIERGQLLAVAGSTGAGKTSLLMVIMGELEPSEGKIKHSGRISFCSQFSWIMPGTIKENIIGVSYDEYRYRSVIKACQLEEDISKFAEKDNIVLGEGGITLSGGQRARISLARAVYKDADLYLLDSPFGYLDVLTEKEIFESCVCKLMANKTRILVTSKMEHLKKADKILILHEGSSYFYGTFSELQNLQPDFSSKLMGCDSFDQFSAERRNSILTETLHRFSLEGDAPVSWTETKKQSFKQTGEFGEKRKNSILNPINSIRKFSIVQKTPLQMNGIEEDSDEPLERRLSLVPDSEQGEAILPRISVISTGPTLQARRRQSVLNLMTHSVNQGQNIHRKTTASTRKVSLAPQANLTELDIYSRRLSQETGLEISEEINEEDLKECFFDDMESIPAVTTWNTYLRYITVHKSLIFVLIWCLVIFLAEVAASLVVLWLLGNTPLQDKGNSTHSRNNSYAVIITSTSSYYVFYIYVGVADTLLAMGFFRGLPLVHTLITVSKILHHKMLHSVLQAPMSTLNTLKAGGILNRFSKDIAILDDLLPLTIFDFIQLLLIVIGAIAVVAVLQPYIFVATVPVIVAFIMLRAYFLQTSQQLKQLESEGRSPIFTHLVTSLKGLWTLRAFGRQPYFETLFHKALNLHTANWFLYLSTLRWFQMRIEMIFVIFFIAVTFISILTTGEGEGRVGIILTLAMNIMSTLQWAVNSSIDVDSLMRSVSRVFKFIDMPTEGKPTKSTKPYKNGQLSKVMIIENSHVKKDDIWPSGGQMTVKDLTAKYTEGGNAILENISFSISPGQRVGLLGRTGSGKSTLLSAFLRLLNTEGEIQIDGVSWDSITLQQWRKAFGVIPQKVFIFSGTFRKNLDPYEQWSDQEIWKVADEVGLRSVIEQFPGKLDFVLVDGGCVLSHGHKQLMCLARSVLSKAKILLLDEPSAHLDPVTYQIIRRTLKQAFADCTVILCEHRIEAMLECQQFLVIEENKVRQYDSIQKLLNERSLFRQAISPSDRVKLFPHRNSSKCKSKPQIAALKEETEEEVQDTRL

| SMILES | EC50 | % Activity |
| --- | --- | --- |
| CC(C)c1ccc(NC(=O)c2c[nH]c3cc(F)c(F)cc3c2=O)c(C(F)(F)F)c1 [Compound 589, 6,7-difluoro-N-[4-isopropyl-2-(trifluoromethyl)phenyl]-4-oxo-1H-quinoline-3-carboxamide] | < 10 µM | ++ (between 25% to 100%) |
| CC(CO)(CO)c1ccc(NC(=O)c2c[nH]c3ccccc3c2=O)cc1 [Compound 590, N-[4-[2-hydroxy-1-(hydroxymethyl)-1-methyl-ethyl]phenyl]-4-oxo-1H-quinoline-3-carboxamide] | < 10 µM | + (<25%) |
| CCc1cc2cc[nH]c2cc1NC(=O)c1c[nH]c2cccc(O)c2c1=O [Compound 591, N-(5-ethyl-1H-indol-6-yl)-5-hydroxy-4-oxo-1H-quinoline-3-carboxamide] | < 10 µM | ++ (between 25% to 100%) |
| Cc1cccc2[nH]cc(C(=O)Nc3ccc(N4[C@H](C)CC[C@@H]4C)cc3C(F)(F)F)c(=O)c12 [Compound 592, N-(4-((2R,5S)-2,5-dimethylpyrrolidin-1-yl)-2-(trifluoromethyl)phenyl)-5-methyl-4-oxo-1,4-dihydroquinoline-3-carboxamide] | < 10 µM | ++ (between 25% to 100%) |
| O=C(Nc1cc(N2CCCC2)cc(C(F)(F)F)c1)c1c[nH]c2ccccc2c1=O [Compound 593, 4-oxo-N-[3-pyrrolidin-1-yl-5-(trifluoromethyl)phenyl]-1H-quinoline-3-carboxamide] | < 10 µM | ++ (between 25% to 100%) |
| Cc1cccc2[nH]cc(C(=O)Nc3ccc(OC4CCCC4)cc3C(F)(F)F)c(=O)c12 [Compound 595, N-[4-cyclopentoxy-2-(trifluoromethyl)phenyl]-5-methyl-4-oxo-1H-quinoline-3-carboxamide] | < 10 µM | ++ (between 25% to 100%) |
| O=C(Nc1cc2[nH]ccc2cc1F)c1c[nH]c2cccc(O)c2c1=O [Compound 596, N-(5-fluoro-1H-indol-6-yl)-5-hydroxy-4-oxo-1H-quinoline-3-carboxamide] | < 10 µM | ++ (between 25% to 100%) |
| CC(C)c1ccc(NC(=O)c2c[nH]c3ccc(F)cc3c2=O)cc1O [Compound 597, 6-fluoro-N-(3-hydroxy-4-isopropyl-phenyl)-4-oxo-1H-quinoline-3-carboxamide] |  | ++ (between 25% to 100%) |
| O=C(Nc1ccc(N2CCOCC2)cc1C(F)(F)F)c1c[nH]c2ccccc2c1=O [Compound 598, N-[4-morpholino-2-(trifluoromethyl)phenyl]-4-oxo-1H-quinoline-3-carboxamide] | < 10 µM | +++ (>100%) |
| O=C(Nc1cc(O)cc(C(F)(F)F)c1)c1c[nH]c2cccc(O)c2c1=O [Compound 599, 5-hydroxy-N-[3-hydroxy-5-(trifluoromethyl)phenyl]-4-oxo-1H-quinoline-3-carboxamide] | < 10 µM | ++ (between 25% to 100%) |
| CC(C)(C)OC(=O)Nc1ccc(NC(=O)c2c[nH]c3ccccc3c2=O)c(C(F)(F)F)c1 [Compound 600, tert-butyl [[4-[(4-oxo-1H-quinolin-3-yl)carbonylamino]-3-(trifluoromethyl)phenyl]amino]formate] | < 10 µM | ++ (between 25% to 100%) |
| COc1ccc2[nH]cc(C(=O)Nc3ccc(N4CCC[C@@H]4C)cc3C(F)(F)F)c(=O)c2c1 [Compound 601, (S)-6-methoxy-N-(4-(2-methylpyrrolidin-1-yl)-2-(trifluoromethyl)phenyl)-4-oxo-1,4-dihydroquinoline-3-carboxamide] | < 10 µM | ++ (between 25% to 100%) |
| CC1(c2ccc(NC(=O)c3c[nH]c4cccc(O)c4c3=O)cc2O)CCCCC1 [Compound 606, 5-hydroxy-N-[3-hydroxy-4-(1-methylcyclohexyl)-phenyl]-4-oxo-1H-quinoline-3-carboxamide] | < 10 µM | + (<25%) |
| Cc1ccc2c(=O)c(C(=O)Nc3ccc(N4CCC[C@@H]4C)cc3C(F)(F)F)c[nH]c2c1 [Compound 607, (S)-7-methyl-N-(4-(2-methylpyrrolidin-1-yl)-2-(trifluoromethyl)phenyl)-4-oxo-1,4-dihydroquinoline-3-carboxamide] | < 10 µM | ++ (between 25% to 100%) |
| CC1(C)CCCN(c2ccc(NC(=O)c3c[nH]c4ccccc4c3=O)c(C(F)(F)F)c2)C1 [Compound 612, N-[4-(3,3-dimethyl-1-piperidyl)-2-(trifluoromethyl)phenyl]-4-oxo-1H-quinoline-3-carboxamide] | < 10 µM | ++ (between 25% to 100%) |
| Cc1cccc2[nH]cc(C(=O)Nc3ccc(N4CC[C@@H](C)C4)cc3C(F)(F)F)c(=O)c12 [Compound 613, (R)-5-methyl-N-(4-(3-methylpyrrolidin-1-yl)-2-(trifluoromethyl)phenyl)-4-oxo-1,4-dihydroquinoline-3-carboxamide] | < 10 µM | ++ (between 25% to 100%) |
| O=C(Nc1ccc(Oc2cccnc2)cc1)c1c[nH]c2ccccc2c1=O [Compound 614, 4-oxo-N-[4-(3-pyridyloxy)phenyl]-1H-quinoline-3-carboxamide] | < 10 µM | ++ (between 25% to 100%) |
| Cc1cc(N2CCCC2)ccc1NC(=O)c1c[nH]c2ccccc2c1=O [Compound 615, N-(2-methyl-4-pyrrolidin-1-yl-phenyl)-4-oxo-1H-quinoline-3-carboxamide] | < 10 µM | +++ (>100%) |
| C[C@H]1CCCN1c1ccc(NC(=O)c2c[nH]c3ccccc3c2=O)c(C(F)(F)F)c1 [Compound 618, (S)-N-(4-(2-methylpyrrolidin-1-yl)-2-(trifluoromethyl)phenyl)-4-oxo-1,4-dihydroquinoline-3-carboxamide] | < 10 µM | ++ (between 25% to 100%) |
| O=C(Nc1cc(O)c(C2CCCCC2)cc1C(F)(F)F)c1c[nH]c2ccccc2c1=O [Compound 619, N-[4-cyclohexyl-5-hydroxy-2-(trifluoromethyl)phenyl]-4-oxo-1H-quinoline-3-carboxamide] | < 10 µM | +++ (>100%) |
| N#Cc1cc(N2CCCC2)ccc1NC(=O)c1c[nH]c2ccccc2c1=O [Compound 622, N-(2-cyano-4-pyrrolidin-1-yl-phenyl)-4-oxo-1H-quinoline-3-carboxamide] | < 10 µM | ++ (between 25% to 100%) |

Further lines, results first:

| EC50 | % Activity | SMILES |
| --- | --- | --- |
| < 10 µM | ++ (between 25% to 100%) | Cc1cc(C(C)(C)C)c(O)cc1NC(=O)c1c[nH]c2cccc(O)c2c1=O [Compound 588, 5-hydroxy-N-(5-hydroxy-2-methyl-4-tert-butyl-phenyl)-4-oxo-1H-quinoline-3-carboxamide] |
| < 10 µM | +++ (>100%) | CC(C)(C)c1ccc(NC(=O)c2c[nH]c3ccccc3c2=O)c(C(C)(C)C)c1O [Compound 594, N-(3-hydroxy-2,4-ditert-butyl-phenyl)-4-oxo-1H-quinoline-3-carboxamide] |
| < 10 µM | ++ (between 25% to 100%) | CC(C)(C)c1cccc(NC(=O)c2c[nH]c3ccccc3c2=O)c1 [Compound 602, 4-oxo-N-(3-tert-butylphenyl)-1H-quinoline-3-carboxamide] |
| < 10 µM | ++ (between 25% to 100%) | CC(=O)c1ccc2c(=O)c(C(=O)Nc3cc(O)c(C(C)(C)C)cc3C(C)(C)C)c[nH]c2c1 [Compound 604, 7-acetyl-N-(5-hydroxy-2,4-ditert-butyl-phenyl)-4-oxo-1H-quinoline-3-carboxamide] |
| 10 to 25 µM | + (<25%) | CCc1cccc2c(=O)c(C(=O)Nc3cc(O)c(C(C)(C)C)cc3F)c[nH]c12 [Compound 605, 8-ethyl-N-(2-fluoro-5-hydroxy-4-tert-butyl-phenyl)-4-oxo-1H-quinoline-3-carboxamide] |
| < 10 µM | ++ (between 25% to 100%) | O=C(Nc1cc(O)c(Cl)cc1Cl)c1c[nH]c2ccccc2c1=O [Compound 608, N-(2,4-dichloro-5-hydroxy-phenyl)-4-oxo-1H-quinoline-3-carboxamide] |
| < 10 µM | ++ (between 25% to 100%) | CC(C)(C)c1ccc(O)cc1NC(=O)c1c[nH]c2cccc(O)c2c1=O [Compound 609, 5-hydroxy-N-(5-hydroxy-2-tert-butyl-phenyl)-4-oxo-1H-quinoline-3-carboxamide] |
| < 10 µM | ++ (between 25% to 100%) | CC(C)(C)c1cc(F)c(NC(=O)c2c[nH]c3cccc(F)c3c2=O)cc1O [Compound 610, 5-fluoro-N-(2-fluoro-5-hydroxy-4-tert-butyl-phenyl)-4-oxo-1H-quinoline-3-carboxamide] |
| < 10 µM | +++ (>100%) | COc1cc2c(=O)c(C(=O)Nc3cc4[nH]ccc4cc3C(C)(C)C)c[nH]c2cc1F [Compound 611, 7-fluoro-6-methoxy-4-oxo-N-(5-tert-butyl-1H-indol-6-yl)-1H-quinoline-3-carboxamide] |
| 10 to 25 µM | + (<25%) | CCOc1cccc2c(=O)c(C(=O)Nc3cc(O)c(C(C)(C)C)cc3C(C)(C)C)c[nH]c12 [Compound 616, 8-ethoxy-N-(5-hydroxy-2,4-ditert-butyl-phenyl)-4-oxo-1H-quinoline-3-carboxamide] |
| < 10 µM | +++ (>100%) | COc1cc2[nH]cc(C(=O)Nc3cc(O)c(C(C)(C)C)cc3C(C)(C)C)c(=O)c2cc1F [Compound 617, 6-fluoro-N-(5-hydroxy-2,4-ditert-butyl-phenyl)-7-methoxy-4-oxo-1H-quinoline-3-carboxamide] |
| < 10 µM | + (<25%) | Cc1cccc2c(=O)c(C(=O)Nc3cc(O)c(C(C)(C)C)cc3C(C)(C)C)c[nH]c12 [Compound 621, N-(5-hydroxy-2,4-ditert-butyl-phenyl)-8-methyl-4-oxo-1H-quinoline-3-carboxamide] |
